According to ChEMBL document CHEMBL1156829 (Proc Natl Acad Sci U S A, 2008):

How the values were obtained:
[1] = NOVARTIS: Cytotoxicity against human hepatocellular carcinoma cell line (Huh7); assay type: toxicity, cell-based, Huh-7; conditions: Huh7 cells (hepatocellular carcinoma cell line)
Plasmodium falciparum [2] = test: NOVARTIS: Inhibition of Plasmodium falciparum 3D7 (drug-susceptible) proliferation in erythrocyte-based infection assay; assay type: functional, organism-based; conditions: Plasmodium falciparum, 3D7
Plasmodium falciparum [3] = test: NOVARTIS: Inhibition of Plasmodium falciparum W2 (drug-resistant) proliferation in erythrocyte-based infection assay; assay type: functional, organism-based
[4] = Plasmodium falciparum, W2, read-out: EC50

SMILES | CC50 [1] [nM] | EC50 (Plasmodium falciparum [2]) [nM] | EC50 (Plasmodium falciparum [3]; [4]) [nM] | EC50 (Plasmodium falciparum [3])
CCN(CC)c1ccc(C2N(Cc3ccccc3)CCN2Cc2ccccc2)c(O)c1 | 23600 | 2360 | 2820 | 
O=C(Cc1ccccc1)NC(c1ccccc1)c1ccc2cccnc2c1O (centres undefined) | > 100000 | 423 | 382 | 
COc1ccc2[nH]c3c(NCCN4CCCCC4)ncnc3c2c1 | 28600 | 785 | 976 | 
CCN1CCN(c2cc(C)c3cc(NC(=O)/C=C/c4ccccc4Cl)ccc3n2)CC1 | > 10000 | 966 | > 1250 | 
COc1ccccc1C(=O)ON=C(N)Cc1cccc2ccccc12 | 49600 | 352 | 212 | 
O=C(Nc1ccc(Cl)cc1)N1CCN(c2ccc3nncn3n2)CC1 | > 100000 | 2060 | 1380 | 
CC(=O)N(C1=C(N2CCCC2)C(=O)c2ccccc2C1=O)c1ccc(F)c(F)c1 | 20200 | 407 | 174 | 
N#Cc1cc(C#N)c(N2CCN(c3cccc(Cl)n3)CC2)nc1N | > 10000 | 791 | 714 | 
COc1ccc(OC)c(-c2ccc(O)c(CNCc3ccccc3OC)c2)c1 | > 10000 | > 1520 | 117 | 
Cc1cc(C)c2c(c1)OCN(Cc1ccccc1Cl)C2 | > 100000 | 192 | 300 | 
O=C1C(=Cc2cc([N+](=O)[O-])cc(Br)c2O)C(=O)c2ccccc21 | > 10000 | > 1250 | > 877 | 
CC(C)c1ccc(-c2cncc(N[C@@H](C)c3ccccc3)n2)cc1 | > 10000 | > 558 | 846 | 
CCN(CC)C(=O)COc1ccc(-c2nnc(N3CCCCC3)c3ccccc23)cc1 | > 100000 | 1740 | 508 | 
COc1ccc(-c2nc3ccccc3n2C2CCN(Cc3ccc(C)o3)CC2)cc1OC | > 10000 | > 1250 | 26.7 | 
CCOC(=O)c1c(CNc2ccncc2)n(C)c2cc(Br)c(O)cc12 | > 10000 | 315 | 333 | 
O=C(CCl)NCCCCNc1ccnc2cc(Cl)ccc12 | > 10000 | > 811 |  | No fit
CCOc1ccc(C(=O)Nc2cccc(-c3nc4cc(C)ccc4o3)c2C)cc1 | > 10000 | > 1250 | > 968 | 
CN(C)c1ccc(NC=CC(=O)C(C)(C)C)cc1 | 36900 | 1050 | 282 | 
CC(C)c1ccc(NC(=O)c2ccc(NCCCN(C)Cc3ccccc3)c([N+](=O)[O-])c2)cc1 | > 100000 | 2480 | 3200 | 
Cc1cc(N2CCCCC2)nc2ccc(NC(=O)c3cncc(Br)c3)cc12 | > 10000 | 1360 | > 1250 | 
Cc1oc2c(c1C(=O)NCC1CCCO1)C(=O)c1ccccc1C2=O (centres undefined) | 6930 | 1180 | 481 | 
COc1cccc(CCOc2ccc3c(c2)C(=O)N(C(CC(C)C)C(=O)NC2CCN(Cc4ccccc4)CC2)[C@@H](Cc2ccc(O)cc2)C(=O)N3)c1 (some centres undefined) | > 10000 | 502 | 158 | 
Cc1c2c(n3c(nc4ccccc43)c1C#N)N(CCN(C)C)CC2 | > 100000 | 419 | 638 | 
Cn1ccnc1C(=O)NNc1ncc(C(F)(F)F)cc1Cl | 1150 | 609 | 359 | 
COCCNC(=O)[C@@H]1C[C@@H](NCCC2=C(C)CCCC2(C)C)CN1C(C)C | > 100000 | > 12500 | 4300 | 
CC(CCCO)Nc1ccnc2cc(Cl)ccc12 (centres undefined) | > 10000 | 561 | 513 | 
COc1ccc(C2NCCc3c2[nH]c2ccccc32)cc1CSc1nc2ccccc2[nH]1 (centres undefined) | 20400 | 1750 | 2590 | 
c1ccc2c(c1)CSc1sccc1C2=C1CCNCC1 | 13000 | 88 | 4410 | 
